In brackets after ≈: the same amount, converted by molar mass. Several values for one entry are separate records, joined by “and”; a condition that tells them apart may be missing. Identical values can stand only once. Like-named read-outs stand apart in the source and are kept apart here.
Assays:
Gardnerella swidsinskii = experiment: microbe, parasite or virus in culture; type: cell-based
Description: (§1) The minimum inhibitory concentration (MIC), which is a standard measure of the activity of antimicrobials, was determined according to the Clinical and Laboratory Standards Institute protocol (2018) Methods for Antimicrobial Susceptibility Testing of Anaerobic Bacteria (Carpenter et al., 2018). […] Controls for growth in the absence of antimicrobials were also included. OD600 was recorded by a microplate reader (Tecan, Grodig, Austria) after incubation at 37° C. for 48 h or, for some fast-growing strains, after incubation for 24 h. Absence of growth was defined as OD600≤0.14. […] MIC readout and MBC99.5 spotting were performed after 72 h incubation for H2B10B11.
(§2) However, topical intravaginal antibiotic administration is recommended for BV therapy, which allows to reach concentrations of active ingredients in the mg/mL range. […] Abbreviations: n.d., not determined; SJHB, St. Jan Hospital Bruges.
(§3) MIC90 is defined as the MIC value for 90% of the tested strains. For PM-477 (H2B10), the resistance breakpoint is not defined, therefore a “% resistant” is not defined (n.d.).

Gardnerella vaginalis = experiment: microbe, parasite or virus in culture; type: cell-based; conditions: Gardnerella vaginalis
Description: as §1, §2, §3

Gardnerella leopoldii = experiment: MIC / MBC99.5 assessment in suspension; type: cell-based; conditions: Gardnerella leopoldii
Description: as §1, §2, §3

Gardnerella piotii = experiment: MIC / MBC99.5 assessment in suspension; type: cell-based; conditions: Gardnerella piotii
Description: as §1, §2, §3

All Gardnerella = experiment: MIC assessment in suspension, panel of 22 strains; type: cell-based, Gardnerella spp.; conditions: for MIC90: N=22 strains
Description: as §1, §2, §3

G. vaginalis biofilm = experiment: MBEC on pre-formed biofilms of ancestor isolates; type: cell-based, Gardnerella vaginalis
Description: (§4) Gardnerella spp. (see figures for strain specification) was resuspended in brain heart infusion broth supplemented with 2% (w/v) gelatin, 0.5% yeast extract (w/v), 0.1% starch (w/v) and 0.25% glucose (w/v) (sBHIG). Passaged strains were resuspended in unbuffered NYCB supplemented with 1% glucose (w/v) (sNYCB). The OD600 was set to 0.1 (approx. 10^7-10^8 CFU/mL) and the cell suspension was diluted 1:10 in growth medium as input for biofilm formation. A total of 200 μL of the respective bacterial suspensions was added to 96-well flat bottom plates (tissue-culture treated, Sigma-Aldrich). The biofilms were grown under anaerobic conditions at 37° C. for 40 to 72 hours, depending on the isolate. Subsequently, the supernatant was removed, and the biofilm was treated with antimicrobials dissolved in sBHIG (at pH 5 for treatment with PM-477 (H2B10), and unbuffered for treatment with antibiotics) in 100 μL and incubated anaerobically at 37° C. for another 24 hours. After the treatment, the biofilms were washed twice with 200 μL 1x PBS and dissolved by vigorous pipetting (40x up and down). Serial dilutions of the dissolved cells were spotted on chocolate agar plates. The plates were incubated anaerobically for two to three days and the minimum biofilm eradication concentration (MBEC) of the endolysin or the antibiotics in use were calculated.
(§5) Gardnerella dominated biofilms covering the human vaginal epithelial cells are now generally considered as a hallmark of BV. Thus, it was tested how effective antibiotics and PM-477 (H2B10) are in penetrating and killing in vitro pre-formed, 40-72 h old biofilms of various Gardnerella strains.

G. piotii biofilm = type: cell-based, Gardnerella piotii
Description: as §4, §5

[1] = system: passaged G. piotii biofilm; experiment: MBEC on biofilms of passaged strains; type: cell-based, Gardnerella piotii; conditions: G. piotii (UGent 18.01T) passaged with MDZ-OH
Description: as §4
All MICs determined after 48 h of incubation.

Cc1ncc([N+](=O)[O-])n1CCO [MDZ, metronidazole]
MBC99.5 (Gardnerella swidsinskii; G. swidsinskii (BV7) UGent BV7.1): >512 µg/mL
MIC90 (Gardnerella swidsinskii; Gardnerella swidsinskii): > 256 µg/mL
MIC (Gardnerella swidsinskii; Gardnerella swidsinskii, 48 h, read-out: MIC before passaging, G. swidsinskii (GS 9838-1T), 48 h incubation): 256 µg/mL (≈ 1500 µM)
MIC (Gardnerella swidsinskii; Gardnerella swidsinskii, 48 h, read-out: MIC before passaging, G. swidsinskii (UGent BV 7.1), 48 h incubation): 256 µg/mL (≈ 1500 µM)
MIC (Gardnerella swidsinskii; Gardnerella swidsinskii, G. swidsinskii (BV7) UGent BV7.1, suspension, read-out: MIC): 256 µg/mL (≈ 1500 µM)
MIC (Gardnerella swidsinskii; Gardnerella swidsinskii, G. swidsinskii (BV139) UGent BV139.3, suspension, read-out: MIC): 256 µg/mL (≈ 1500 µM)
MIC (Gardnerella swidsinskii; Gardnerella swidsinskii, G. swidsinskii (Gs23) GS 10234, suspension): 64 µg/mL (≈ 374 µM)
MIC (Gardnerella swidsinskii; Gardnerella swidsinskii, G. swidsinskii (Gs24) GS 9838-1(T), suspension, read-out: MIC): 256 µg/mL (≈ 1500 µM)
MBC (Gardnerella swidsinskii; Gardnerella swidsinskii, read-out: MBC99.5, G. swidsinskii (BV139) UGent BV139.3): 256 µg/mL (≈ 1500 µM)
MBC (Gardnerella swidsinskii; Gardnerella swidsinskii, G. swidsinskii (Gs24) GS 9838-1(T), read-out: MBC99.5): > 512 µg/mL
MIC90 (Gardnerella vaginalis): 64 µg/mL (≈ 374 µM)
MIC (Gardnerella vaginalis; 48 h, read-out: MIC before passaging, G. vaginalis (ATCC 14018T), 48 h incubation): 8 µg/mL (≈ 46.7 µM)
MIC (Gardnerella vaginalis; 48 h, read-out: MIC before passaging, G. vaginalis (UGent 09.07), 48 h incubation): 64 µg/mL (≈ 374 µM)
MIC (Gardnerella vaginalis; 48 h, read-out: MIC before passaging, G. vaginalis (UGent BV50), 48 h incubation): 32 µg/mL (≈ 187 µM)
MBC (Gardnerella vaginalis; ATCC14018, 24 h, read-out: MBC99.5, G. vaginalis (Gv9) ATCC 14018(T), reduces CFU by 99.5% within 24 h): 16 µg/mL (≈ 93.5 µM)
MIC (Gardnerella vaginalis; ATCC14018, G. vaginalis (Gv9) ATCC 14018(T), suspension): 8 µg/mL (≈ 46.7 µM)
MIC (Gardnerella vaginalis; G. vaginalis (BV50) UGent BV50.1, suspension): 32 µg/mL (≈ 187 µM)
MIC (Gardnerella vaginalis; G. vaginalis (FB049) UGent FB049-01, suspension): 16 µg/mL (≈ 93.5 µM)
MIC (Gardnerella vaginalis; G. vaginalis (FB061) UGent FB061-03, suspension, read-out: MIC): 8 µg/mL (≈ 46.7 µM)
MBC (Gardnerella vaginalis; G. vaginalis (FB061) UGent FB061-03, read-out: MBC99.5): 32 µg/mL (≈ 187 µM)
MIC (Gardnerella vaginalis; G. vaginalis (Gv1) UGent 09.07, suspension, read-out: MIC): 64 µg/mL (≈ 374 µM)
MBC (Gardnerella vaginalis; G. vaginalis (Gv1) UGent 09.07, read-out: MBC99.5): 512 µg/mL (≈ 2990 µM)
MIC (Gardnerella vaginalis; G. vaginalis (Gv5) UGent 09.01, suspension, read-out: MIC): 8 µg/mL (≈ 46.7 µM)
MBC (Gardnerella vaginalis; G. vaginalis (Gv5) UGent 09.01, read-out: MBC99.5): 512 µg/mL (≈ 2990 µM)
MIC (Gardnerella vaginalis; G. vaginalis (Gv8) UGent 25.49, suspension, read-out: MIC): 8 µg/mL (≈ 46.7 µM)
MBC (Gardnerella vaginalis; G. vaginalis (Gv8) UGent 25.49, read-out: MBC99.5): 32 µg/mL (≈ 187 µM)
MIC Range (Gardnerella vaginalis; N=8 strains): 8 to 64 µg/mL
MBC (Gardnerella vaginalis; read-out: MBC99.5, G. vaginalis (BV111) UGent BV111.5): 64 µg/mL (≈ 374 µM)
MBC (Gardnerella vaginalis; read-out: MBC99.5, G. vaginalis (FB049) UGent FB049-01): 64 µg/mL (≈ 374 µM)
MIC (Gardnerella leopoldii; G. leopoldii (BV217) UGent BV217.1, suspension, read-out: MIC): 256 µg/mL (≈ 1500 µM)
N resistant (%) (Gardnerella leopoldii; N=3, resistance ≥32 μg/mL MDZ): 100%
N resistant (Gardnerella leopoldii; N=3, resistance ≥32 μg/mL MDZ, ≥8 μg/mL CLI): 3
MIC90 (Gardnerella leopoldii; N=3 strains, read-out: MIC90): > 256 µg/mL
MBC (Gardnerella leopoldii; read-out: MBC99.5): 512 µg/mL (≈ 2990 µM)
MIC (Gardnerella piotii; 48 h, read-out: MIC before passaging): 32 µg/mL (≈ 187 µM)
MBC (Gardnerella piotii; G. piotii (BV049) UGent BV049.1): 32 µg/mL (≈ 187 µM)
MBC (Gardnerella piotii; G. piotii (BV154) UGent BV154.1): 32 µg/mL (≈ 187 µM)
MBC (Gardnerella piotii; G. piotii (FB041) UGent FB041): 64 µg/mL (≈ 374 µM)
MIC (Gardnerella piotii; G. piotii (FB041) UGent FB041, suspension, read-out: MIC): 32 µg/mL (≈ 187 µM)
MBC (Gardnerella piotii; G. piotii (Gp17) UGent 18.01(T)): 64 µg/mL (≈ 374 µM)
MIC (Gardnerella piotii; G. piotii (Gp17) UGent 18.01(T), suspension, read-out: MIC): 32 µg/mL (≈ 187 µM)
MIC (Gardnerella piotii; G. piotii (Gp22) UGent 21.28, suspension, read-out: MIC): 64 µg/mL (≈ 374 µM)
MBC (Gardnerella piotii; G. piotii (P80275) UGent P80275): 64 µg/mL (≈ 374 µM)
MIC (Gardnerella piotii; G. piotii (P80275) UGent P80275, suspension, read-out: MIC): 16 µg/mL (≈ 93.5 µM)
N resistant (%) (Gardnerella piotii; N=7, resistance ≥32 μg/mL MDZ): 57%
N resistant (Gardnerella piotii; N=7, resistance ≥32 μg/mL MDZ, ≥8 μg/mL CLI): 4
MBC (Gardnerella piotii; G. piotii (BV140) UGent BV140.2): > 512 µg/mL
N resistant (%) (All Gardnerella; N=22, resistance ≥32 μg/mL MDZ): 59% and 60%
N resistant (All Gardnerella; N=22, resistance ≥32 μg/mL MDZ, ≥8 μg/mL CLI): 13
MIC90 (All Gardnerella): >256 µg/mL
MIC90 (All Gardnerella; read-out: MIC90): > 256 µg/mL
Eradication of biofilm-grown cells (FIG. 1) (G. vaginalis biofilm; G. vaginalis (ATCC14018), biofilm grown 40 h, treated 24 h): can be eradicated
MBEC (G. vaginalis biofilm; ancestor G. vaginalis UGent FB049, pre-formed biofilm): 2 to 8 µg/mL
MBEC (G. piotii biofilm; ancestor G. piotii UGent 18.01, pre-formed biofilm): 8 µg/mL
MBEC (G. piotii biofilm; ancestor G. piotii UGent 21.28, pre-formed biofilm): 8 to 32 µg/mL
MBEC passaged [1]: >2048 µg/mL

Reference: patent US20250144186A1, “NOVEL THERAPEUTIC USES OF GARDNERELLA ENDOLYSINS” (priority 2022, published 2025)
